Reference: US20160263048A1, “BIOADHESIVE POLYMER-BASED CONTROLLED-RELEASE SYSTEMS, PRODUCTION PROCESS AND CLINICAL USES THEREOF” (priority 2010, published 2016)
Read-outs that look alike come from different tables or passages of the source.

Tests used:
[1] = cited from earlier work
[2] = Solubility in water; type: physicochemical; details: molar ratio TrA/HPβCD 1:10
Description: Currently used cyclodextrins are preferably semi-synthetic derivatives of β-cyclodextrin, soluble in highly polar organic solvents, marketed by Roquette or Wacker such as hydroxypropyl-βCD (HPβCD) and Methyl-βCD. The HPβCD marketed by Roquette under the name Kleptose® HP is an amorphous white powder, with a solubility in water higher than 1 g/ml. Further to this, it has a good stability both in acidic and in basic milieu and can be used to administrate drugs both by injection and by the oral route. The second one, under the name Kleptose® Crysmeb® exp, is a mixture of cyclodextrins which contain from one to seven methyl groups. Crysmeb® has an average of 4 methyl groups for one cyclodextrin molecule and has an average molecular weight of 1191 dalton. It is a white powder, easily soluble in water and its solubility grows with the temperature, and, in addition, it is very stable both in and acidic and in basic milieus.
Such a capability was tested for the buccal release of triamcinolone acetonide (TrA), a corticosteroid drug poorly soluble in water. According to the European Pharmacopeia, TrA is a drug that is practically not soluble in water, since its solubility in this vehicle is about 0.02 mg/ml. The presence of HPβCD in the film enhances TrA solubility by 600 fold, i.e., to about […] (molar ratio TrA/HPβCD 1:10). […]

enhancement of TrA solubility by presence of HPβCD [2] | TrA solubility in presence of HPβCD ([2]; no further enhancement at higher HPβCD concentration) | Compound | solubility in water ([1]; Kleptose® HP marketed by Roquette) | solubility in water ([1]; according to the European Pharmacopeia)
 |  | hydroxypropyl-βCD [HPβCD] | higher than 1 g/ml | 
600 fold | about 4 % w/v | CC1(C)O[C@@H]2C[C@H]3[C@@H]4CCC5=CC(=O)C=C[C@]5(C)[C@@]4(F)[C@@H](O)C[C@]3(C)[C@]2(C(=O)CO)O1 [TrA, triamcinolone acetonide] |  | about 0.02 mg/ml
